According to US20050176149A1, “Process for the reversible functional inactivation of the mismatch repair system” (priority 2002, published 2005):
“Also recorded” adds a separate entry of the source.

What was measured:
[1] = tested on: interspecies S. typhimurium Hfr×E. coli F^− conjugational recombination; assay: interspecies S. typhimurium Hfr×E. coli F^− conjugational recombination (Thr^+ recombinants per Hfr donor); type: cell-based
From the text: (§1) FIG. 1: Influence of 2-aminopurine (2-AP) on the efficiency of intraspecies E. coli Hfr×E. coli F^− and interspecies S. typhimurium Hfr×E. coli F^− conjugational recombination. Recipient E. coli strains were either mutS^+ (A, C) or mutS^− (B, D). The recombination frequencies for the selected marker (Thr^+) are expressed per Hfr donor after subtracting unmated revertants. Each number represents the mean (± standard error) of at least three independent experiments.
The conjugation experiments have been performed under the previously described conditions (Rayssiguier et al., 1989). The overnight cultures of donor strains (2-4×10^9 cells/ml) comprising the DNA sequence to be introduced and recipient strains comprising the autologous DNA sequences were diluted 50-fold into fresh LB medium, with or without 2-aminopurine (Sigma), and grown with gentle shaking (about 150 rpm) in order to obtain 2-4×10^8 cells/ml. In order to obtain the required concentration of cells, about 3 hours of incubation is required. When cells were treated with 2-AP, the growth was slightly slower (the incubation was about 30 minutes longer) compared to the growth without 2-AP. The 2-AP treatment of the donor and recipient strains before mating is preferred as 2-AP must be incorporated in the DNA during replication in order to saturate mismatch repair. The doses of 2-AP tested were: 25 μg/ml, 50 μg/ml, 75 μg/ml, 100 μg/ml, 300 μg/ml and 600 μg/ml. The effect of 2-AP treatment was already significant when 50 μg/ml of 2-AP was used. […] Mating mixtures were prepared by mixing together Hfr and F^− bacteria in a 1:1 ratio. This mixture was filtered through a sterile 0.45-μm-pore size nitrocellulose filter (2.5 cm diameter), using vacuum filtration equipment (MILLIPORE). The filters with mating mixtures i.e. mixtures with cells comprising autologous and introduced nucleotide sequences were incubated on fresh LB agar plate (with or without 2-aminopurine) prewarmed at 37° C. […] For this purpose, the M9 medium [supplemented with arginine, histidine, leucine, proline and tryptophane (100 μg/ml each), thiamine (30 μg/ml), glucose (0.4%), and nalidixic acid (40 μg/ml) to counter-select the Hfr donor cells] was used. Threonine was not added to the media in order to select Thr^+ recombinants. Recombinants were scored after incubation of 48 hours at 37° C.
The recombination between these two bacterial species, which have about 16% divergence in their genomic sequences, is very low (10^−8-10^−7; FIG. 1A) compared to intraspecies recombination (about 10^−1; FIG. 1C). Inactivation of the mutS or mutL gene in recipient cells according to the present invention using 2-AP increases about 10^3-10^4-fold the frequency of interspecies recombination (FIG. 1B, FIG. 2A and 2B).

[2] = tested on: intraspecies E. coli Hfr×E. coli F^− conjugational recombination; assay: intraspecies E. coli Hfr×E. coli F^− conjugational recombination (Thr^+ recombinants per Hfr donor); type: cell-based; conditions: mutS^+ (wildtype) or mutS^− background
From the text: as §1
The conjugation experiments have been performed under the previously described conditions (Rayssiguier et al., 1989). The overnight cultures of donor strains (2-4×10^9 cells/ml) comprising the DNA sequence to be introduced and recipient strains comprising the autologous DNA sequences were diluted 50-fold into fresh LB medium, with or without 2-aminopurine (Sigma), and grown with gentle shaking (about 150 rpm) in order to obtain 2-4×10^8 cells/ml. In order to obtain the required concentration of cells, about 3 hours of incubation is required. When cells were treated with 2-AP, the growth was slightly slower (the incubation was about 30 minutes longer) compared to the growth without 2-AP. The 2-AP treatment of the donor and recipient strains before mating is preferred as 2-AP must be incorporated in the DNA during replication in order to saturate mismatch repair. […] Recombinants were scored after incubation of 48 hours at 37° C.

MutL protein = biological target: T1, MutL protein (Escherichia coli, UniProt P23367); assay: identification of the mismatch-repair system component saturated or inhibited by 2-AP (complementation with mutS^+ or mutL^+ plasmids); type: cell-based, E. coli; conditions: 2-AP 300 mg/ml (so in the source); plasmids carrying mutS^+ or mutL^+
T1 construct: endogenous in cells; host or cells: E. coli K12 AB1157 derivatives (MX4, MX5); In MX5 (mutL218::Tn10), MutL comes from plasmid pMQ339 (mutL+)
T1 sequence (P23367 whole entry): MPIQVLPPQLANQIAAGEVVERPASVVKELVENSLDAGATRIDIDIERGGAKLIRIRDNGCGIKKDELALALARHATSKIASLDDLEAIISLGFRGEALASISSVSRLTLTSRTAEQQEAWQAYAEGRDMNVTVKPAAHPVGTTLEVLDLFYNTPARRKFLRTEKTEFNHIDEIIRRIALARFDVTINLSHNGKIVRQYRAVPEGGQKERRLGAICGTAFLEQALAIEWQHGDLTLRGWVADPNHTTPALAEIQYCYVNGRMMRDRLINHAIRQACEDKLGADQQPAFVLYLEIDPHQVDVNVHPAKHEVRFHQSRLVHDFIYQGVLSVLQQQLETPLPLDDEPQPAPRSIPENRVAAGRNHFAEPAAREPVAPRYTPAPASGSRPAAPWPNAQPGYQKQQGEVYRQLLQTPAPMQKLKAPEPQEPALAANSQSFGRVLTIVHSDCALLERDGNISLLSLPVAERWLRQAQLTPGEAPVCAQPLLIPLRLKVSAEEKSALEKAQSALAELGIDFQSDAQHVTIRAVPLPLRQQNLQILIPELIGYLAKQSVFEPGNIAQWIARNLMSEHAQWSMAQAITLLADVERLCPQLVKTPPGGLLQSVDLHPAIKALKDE
Procedure: FIG. 2: Identification of the mismatch-repair system component, which is saturated or inhibited with 2-aminopurine (2-AP) treatment. Recipient E. coli strains were either […] (A, B) or mutL^− (C, D). The mismatch repair deficiency was complemented with plasmids carrying mutS^+ (A, B) or mutL^+ genes (C, D). The dose of 2-AP used in these experiments was always 300 mg/ml. The recombination frequencies for the selected marker (Thr^+) are expressed per Hfr donor after subtracting unmated revertants. Each number represents the mean (± standard error) of at least three independent experiments.
Plasmids carrying mutS^+ or mutL^+ genes were indroduced by electrotransformation (using BIO RAD micro pulser apparatus) in MX4 and MX5 strains, respectively.
The conjugation experiments have been performed under the previously described conditions (Rayssiguier et al., 1989). The overnight cultures of donor strains (2-4×10^9 cells/ml) comprising the DNA sequence to be introduced and recipient strains comprising the autologous DNA sequences were diluted 50-fold into fresh LB medium, with or without 2-aminopurine (Sigma), and grown with gentle shaking (about 150 rpm) in order to obtain 2-4×10^8 cells/ml. In order to obtain the required concentration of cells, about 3 hours of incubation is required. […] Recombinants were scored after incubation of 48 hours at 37° C.

[3] = tested on: donor and recipient strains; assay: growth of donor and recipient strains in LB medium with 2-AP; type: cell-based, E. coli; conditions: 37° C., compared to growth without 2-AP (about 3 hours)
Procedure: The conjugation experiments have been performed under the previously described conditions (Rayssiguier et al., 1989). The overnight cultures of donor strains (2-4×10^9 cells/ml) comprising the DNA sequence to be introduced and recipient strains comprising the autologous DNA sequences were diluted 50-fold into fresh LB medium, with or without 2-aminopurine (Sigma), and grown with gentle shaking (about 150 rpm) in order to obtain 2-4×10^8 cells/ml. In order to obtain the required concentration of cells, about 3 hours of incubation is required. When cells were treated with 2-AP, the growth was slightly slower (the incubation was about 30 minutes longer) compared to the growth without 2-AP. The 2-AP treatment of the donor and recipient strains before mating is preferred as 2-AP must be incorporated in the DNA during replication in order to saturate mismatch repair. The doses of 2-AP tested were: 25 μg/ml, 50 μg/ml, 75 μg/ml, 100 μg/ml, 300 μg/ml and 600 μg/ml. The effect of 2-AP treatment was already significant when 50 μg/ml of 2-AP was used. […] Mating mixtures were prepared by mixing together Hfr and F^− bacteria in a 1:1 ratio. This mixture was filtered through a sterile 0.45-μm-pore size nitrocellulose filter (2.5 cm diameter), using vacuum filtration equipment (MILLIPORE). […] Recombinants were scored after incubation of 48 hours at 37° C.

SMILES: Nc1ncc2[nH]cnc2n1 [2-AP, 2-aminopurine]
- 2-AP dose at which the effect on recombination was already significant ([1]; doses tested 25-600 μg/ml): 50 µg/mL
- 2-AP dose of maximal effect on recombination efficiency ([1]; doses tested 25-600 μg/ml, further increases did not increase recombination efficiency further): 100 µg/mL
- 2-AP effect on interspecies recombination in mutS^− recipient background ([1]; mutS^− recipient (FIG. 1B) compared with wildtype (FIG. 1A)): not as pronounced as in a wildtype background
- 2-AP concentration range in which an increase of recombination frequency is seen ([1]; wild-type recipient cells, in particular at and above 75 μg/ml): 50 to 600 µg/mL
- effect of 2-AP on frequency of intraspecies recombination [2]: not considerably increased; also recorded: not modified
- component of the MRS titrated or inactivated by the 2-AP treatment (MutL protein): MutL protein
- additional incubation time needed to reach 2-4×10^8 cells/ml (slower growth) with 2-AP [3]: about 30 minutes
